In PubChem BioAssay (NCI):
Several values for one entry are separate records, joined by “and”; a condition that tells them apart may be missing. Equal entries are not always repeated.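 Compound exposure: 48 hours, 5 concentrations, 96-well plates. GI50 is the concentration that inhibits growth by half. TGI marks complete inhibition of growth.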

Columns and labels:
Assay in all cases: inhibition of tumour cell growth, NCI panel, 48 h
A549 NSCLC = tested on: A549 NSCLC
ACHN renal = tested on: ACHN renal
EKVX NSCLC = tested on: EKVX NSCLC
HL-60(TB) leukemia = tested on: HL-60(TB) leukemia
HOP-62 NSCLC = tested on: HOP-62 NSCLC
HOP-92 NSCLC = tested on: HOP-92 NSCLC
OVCAR-8 ovarian = tested on: OVCAR-8 ovarian
PC-3 prostate = tested on: PC-3 prostate
SK-MEL-2 melanoma = tested on: SK-MEL-2 melanoma
UACC-62 melanoma = tested on: UACC-62 melanoma

SMILES	TGI (A549 NSCLC)	TGI (ACHN renal)	TGI (EKVX NSCLC)	TGI (HL-60(TB) leukemia)	TGI (HOP-62 NSCLC)	TGI (HOP-92 NSCLC)	TGI (OVCAR-8 ovarian)	TGI (PC-3 prostate)	TGI (SK-MEL-2 melanoma)	TGI (UACC-62 melanoma)	GI50 (A549 NSCLC)	GI50 (ACHN renal)	GI50 (EKVX NSCLC)	GI50 (HL-60(TB) leukemia)	GI50 (HOP-62 NSCLC)	GI50 (HOP-92 NSCLC)	GI50 (OVCAR-8 ovarian)	GI50 (PC-3 prostate)	GI50 (SK-MEL-2 melanoma)	GI50 (UACC-62 melanoma)
O=C(O)C(=Cc1ccnc2ccccc12)C(=O)O	> 100 µM	> 100 µM	> 100 µM	> 100 µM	> 100 µM	> 100 µM	> 100 µM	> 100 µM	> 100 µM	> 100 µM	–	–	–	–	–	–	–	–	–	–
COc1ccc(/C=C/C(=O)c2cc3c(N)c(C(=O)Nc4ccccc4Cl)sc3nc2C)cc1	> 50 µM	10.8 µM	> 50 µM	> 50 µM	8.02 µM	4.18 µM	11 µM	> 50 µM	16.7 µM	8.93 µM	2.14 µM	1.74 µM	2.25 µM	1.74 µM	1.62 µM	0.689 µM	2.04 µM	2.92 µM	1.31 µM	0.391 µM
Cc1c(N=Nc2ccc([N+](=O)[O-])cc2)nc2scc(-c3ccccc3)n12	> 100 µM	> 100 µM	> 100 µM	49.2 µM	> 100 µM	> 100 µM	> 100 µM	> 100 µM	> 100 µM	> 100 µM	–	–	–	–	–	–	–	–	–	–
OCc1cn(Cc2cccc(Cl)c2)c2ccccc12	65.8 µM	69.2 µM	56.1 µM	21.1 µM	47.3 µM	17.4 µM	66.9 µM	39.9 µM	14.8 µM	1.5 µM	15 µM	5.63 µM	17.3 µM	5.38 µM	9.74 µM	1.55 µM	10.9 µM	15.5 µM	3.16 µM	< 0.0199 µM
N[C@@H](Cc1c[nH]c2ccccc12)C(=O)NC1CCN(C(=O)c2c[nH]c3ccccc23)CC1	> 100 µM	> 100 µM	> 100 µM	> 100 µM	> 100 µM	> 100 µM	> 100 µM	> 100 µM	> 100 µM	> 100 µM	> 100 µM	> 100 µM	> 100 µM	> 100 µM	> 100 µM	71 µM	> 100 µM	> 100 µM	> 100 µM	> 100 µM
COc1c(O)c2c(c3cc(C(=O)N4CCc5c4c(O)c(OC)c4[nH]c(C(=O)N6CC7CC78C6=CC(=O)c6[nH]cc(C)c68)cc54)[nH]c13)CCN2C(N)=O (centres undefined)	–	0.0142 µM	> 100 µM and 0.0904 µg/mL	0.0439 µg/mL	14.6 nM and 0.0745 µg/mL	28.8 nM and 0.0401 µg/mL	0.00265 µM	10 µM	0.0349 µg/mL	5.3 nM and 688 nM and 0.00323 µg/mL	–	–	0.00694 µg/mL	0.007 µg/mL	2.51 nM and 0.0165 µg/mL	0.0081 µg/mL	–	–	0.0187 µg/mL	–
COP(=O)(OC)C(NC(c1ccccc1)c1ccccc1)c1ccc2c(c1)OCO2 (centres undefined)	> 100 µM	> 100 µM	92.6 µM	56.5 µM	52.2 µM	26.3 µM	> 100 µM	66.3 µM	50.2 µM	32.2 µM	27.3 µM	29.1 µM	31.4 µM	22.8 µM	21.5 µM	12 µM	35.2 µM	16.4 µM	23.8 µM	16 µM
CC12CCC3C(CC=C4CC(O)CCC43C)C1C/C(=C\N1CCCC1)C2=O (centres undefined)	> 100 µM	> 100 µM	> 100 µM	> 100 µM	> 100 µM	83.7 µM	> 100 µM	> 100 µM	> 100 µM	> 100 µM	> 100 µM	91.8 µM	46.6 µM	75.3 µM	> 100 µM	4.52 µM	> 100 µM	55 µM	> 100 µM	41.2 µM
CC(=O)O[C@H]1C(=O)[C@@]2(C)C(C(OC(=O)c3ccccc3)[C@]3(O)CC(OC(=O)[C@H](OC(=O)CCC(=O)O)C(NC(=O)c4ccccc4)c4ccccc4)C(C)=C1C3(C)C)C1(OC(C)=O)COC1C[C@@H]2OC(=O)CCC(=O)O (some centres undefined)	> 100 µM	> 100 µM	> 100 µM	0.868 µM	–	> 100 µM	> 100 µM	> 100 µM	–	29.3 µM	–	–	–	–	–	–	–	–	–	2.05 µM
N#Cc1c(C(=O)c2ccccc2)cnn1-c1ccccc1	> 25 µM	> 25 µM	–	> 25 µM	> 25 µM	> 25 µM	> 25 µM	> 25 µM	> 25 µM	> 25 µM	> 25 µM	> 25 µM	–	> 25 µM	> 25 µM	> 25 µM	> 25 µM	> 25 µM	> 25 µM	> 25 µM
CSc1nc2c(c(=O)[nH]1)N=C1c3ccccc3C(=O)C1C(c1ccc(F)cc1)N2 (centres undefined)	> 100 µM	36.4 µM	> 100 µM	> 100 µM	33.7 µM	48.8 µM	35.4 µM	95.2 µM	> 100 µM	48.9 µM	12.6 µM	11.6 µM	18.2 µM	6.54 µM	11.9 µM	9.52 µM	13.1 µM	7.72 µM	49.3 µM	3.04 µM
O=C(/C=C/c1ccc(OCC(=O)N2CCN(c3ccccc3)CC2)cc1)c1ccc(Cl)cc1	> 100 µM	69.7 µM	> 83.9 µM	> 100 µM	55.3 µM	47.8 µM	> 100 µM	> 100 µM	98.3 µM	> 95.7 µM	–	–	–	–	–	–	–	–	–	–
CCCC[C@H]1C(=O)O[C@H](C)[C@H](NC(=O)c2cccc(NC=O)c2O)C(=O)O[C@@H](C)[C@@H]1OC(=O)CC(C)C	29.5 µM	36.1 µM	37.9 µM	34.2 µM	33.2 µM	29.9 µM	40.5 µM	32.9 µM	22.2 µM	22.1 µM	–	–	–	–	–	–	–	–	–	–
C=C1C(=O)O[C@H]2[C@H]1CC/C(COC(=O)NCc1cc3ccccc3[nH]1)=C\CC[C@@]1(C)O[C@@H]21	27.2 µM	2.75 µM	3.53 µM	3.16 µM	23.3 µM	2.98 µM	5.41 µM	3.46 µM	7.25 µM	3.2 µM	10.3 µM	1.38 µM	1.64 µM	0.865 µM	10.3 µM	1.29 µM	2.02 µM	1.63 µM	2.46 µM	1.62 µM
Cc1cn(C2CC(F)C(CO)O2)c(=O)[nH]c1=O (centres undefined)	> 100 µM	> 100 µM	> 100 µM	> 100 µM	> 100 µM	> 100 µM	> 100 µM	> 100 µM	> 100 µM	> 100 µM	> 100 µM	> 100 µM	> 100 µM	> 100 µM	> 100 µM	> 100 µM	> 100 µM	> 100 µM	> 100 µM	> 100 µM
CC(C)(C)N1CCC1C(N)=O (centres undefined)	> 100 µM	> 100 µM	> 100 µM	> 100 µM	> 100 µM	> 100 µM	> 100 µM	> 100 µM	> 100 µM	> 100 µM	> 100 µM	> 100 µM	> 100 µM	> 100 µM	> 100 µM	> 100 µM	> 100 µM	> 100 µM	> 100 µM	> 100 µM
C=C1[C@@H](C)[C@H]2[C@H](Cc3ccccc3)NC(=O)[C@]23OC(=O)/C=C/[C@H](O)CCC[C@@H](C)C/C=C/[C@H]3[C@@H]1O	> 97 µM	> 57.4 µM	> 100 µM	90 µM	15 µM	4.23 µM	66.4 µM	> 100 µM	89.1 µM	66.2 µM	–	–	–	–	–	–	–	–	–	–
O=c1cc(C(F)(F)F)c2cc3c(cc2o1)NCCC3	> 100 µM	> 100 µM	> 100 µM	> 100 µM	42.8 µM	> 100 µM	> 100 µM	> 100 µM	> 100 µM	–	–	–	–	–	–	–	–	–	–	–
COc1ccc(-n2c(SCc3cc(OC)c(OC)c(OC)c3)nc3ccc(C)cc3c2=O)c(OC)c1	> 100 µM	> 100 µM	–	4.77 µM	> 100 µM	> 100 µM	> 100 µM	> 100 µM	85.1 µM	> 100 µM	4.18 µM	7.49 µM	–	2.14 µM	18.8 µM	2.58 µM	5.14 µM	3.63 µM	3.73 µM	5.19 µM
C(=N\Nc1ccccn1)/c1ccccn1	> 100 µM	–	> 100 µM	2.53 µM	> 100 µM	> 82.7 µM	> 100 µM	> 100 µM	> 100 µM	2.28 µM	0.501 µM	0.294 µM	0.348 µM	0.272 µM	0.38 µM	–	0.411 µM	–	> 100 µM	0.327 µM
O=C(O)c1cc2ccccc2c(O)c1O	38.5 µM	31.8 µM	51.1 µM	> 74.3 µM	33 µM	> 54.9 µM	27.4 µM	37 µM	14.6 µM	13 µM	–	–	–	–	–	–	–	–	–	–
Cc1c(C#N)cccc1-c1cc(-c2cn(Cc3cccc(C(C)(C)O)n3)nn2)nc(N)n1	> 100 µM	> 100 µM	> 100 µM	46 µM	> 100 µM	–	> 100 µM	87.5 µM	79.3 µM	57.9 µM	26.9 µM	28.3 µM	27.8 µM	12.2 µM	22.2 µM	–	24.2 µM	17.7 µM	21.3 µM	12 µM
CC(=O)Nc1ccc(/C=C/[N+](=O)[O-])cc1	17.6 µM	9.44 µM	12.9 µM	6.44 µM	21.4 µM	17.4 µM	15.4 µM	16.7 µM	25.6 µM	4 µM	–	–	–	–	–	–	–	–	–	–
NC(=O)c1cnc(N[C@@H]2CCCC[C@@H]2N)nc1Nc1cccc(-n2nccn2)c1	14.3 µM	11.1 µM	18.9 µM	3.82 µM	17.7 µM	8.72 µM	20 µM	20.7 µM	15.2 µM	20.3 µM	3.58 µM	2.69 µM	6.04 µM	1.5 µM	4.69 µM	2.7 µM	6.6 µM	5.16 µM	3.29 µM	5.48 µM
N#CC(=S)Nc1cccc(Cl)c1	> 100 µM	> 100 µM	> 100 µM	70.4 µM	> 100 µM	> 100 µM	> 100 µM	> 100 µM	> 100 µM	> 100 µM	–	–	–	–	–	–	–	–	–	–
O=C1CCC(Cc2ccc(Cl)cc2Cl)C(=O)N1 (centres undefined)	> 100 µM	> 100 µM	> 100 µM	> 100 µM	> 100 µM	> 100 µM	> 100 µM	> 100 µM	> 100 µM	> 100 µM	–	–	–	–	–	–	–	–	–	–
Oc1ccc(Cc2ccc(O)c3ncccc23)c2cccnc12	73.9 µM	> 100 µM	> 100 µM	> 100 µM	1.09 µM	0.0513 µM	> 100 µM	53.2 µM	0.681 µM	0.804 µM	0.0371 µM	0.0367 µM	0.344 µM	0.263 µM	0.0442 µM	0.0114 µM	0.0477 µM	0.0583 µM	0.228 µM	0.0408 µM
COc1cc(Nc2nc3cc(N)cc(N)c3nc2-c2ccccc2)cc(OC)c1	> 100 µM	83.2 µM	64.4 µM	> 100 µM	53.8 µM	–	47 µM	10.9 µM	63.8 µM	23.3 µM	20.1 µM	5.65 µM	13.3 µM	9.99 µM	19.6 µM	–	6.2 µM	1.96 µM	12 µM	7.33 µM
CCN(CC)c1ccc(/C=C\c2cc(C)c3cc(C)ccc3n2)cc1	> 100 µM	> 100 µM	> 100 µM	7.66 µM	–	7.06 µM	> 100 µM	81.1 µM	81 µM	> 100 µM	4.98 µM	6.23 µM	45.6 µM	3.23 µM	–	1.66 µM	4.79 µM	3.69 µM	7.24 µM	3.92 µM
